This is an account of results in publication PMC12179625, “Development of an LC-MS/MS method for quantification of colistin and colistin methanesulfonate in human plasma and its application to stability studies and therapeutic drug monitoring” (Journal of Mass Spectrometry and Advances in the Clinical …, 2025).

Series [1] can be described thus: Autosampler stability of processed colistin samples. The class given is physicochemical. The settings on record: autosampler 4 °C, accuracy, LC-MS/MS, mean ± SD, n = 3. The procedure: (§1) The SPE column was activated by using 1 mL of methanol followed by 2 mL of ultrapure water. Subsequently, 200 μL of either calibration standard samples, QC samples, or patient plasma samples were mixed with 100 μL of IS working solution and 700 μL of 1.43 % ammonia, This step is to ensure that the solution is in a non-acidic environment. This mixture was thoroughly vortexed to ensure homogeneity. The mixed samples were then loaded onto the Welch BRP SPE columns. After sequentially washing the column with a total of 4 mL of 1 % ammonia, the analytes were eluted twice with 200 μL of […] (30:70, v/v) containing 4 % formic acid. Ultimately, 400 μL total eluate was collected and analyzed by LC-MS/MS.
(§2) This study investigated the stability of colistin A and colistin B during the assay process, including the stability of plasma samples at room temperature for 24 h, the stability through three cycles of repeated freeze–thaw from −80 °C to room temperature, the stability during storage at −80 °C for three months, and the autosampler stability of processed samples at 4°C for 24 h. Three parallel samples were prepared for each condition. If the accuracy of the samples under storage conditions is within 85 % to 115 %, the stability is considered acceptable.

Series [2] can be described thus: Stability of colistin A and colistin B in plasma samples. Format: in vitro ADME. The settings on record: spiked human plasma, accuracy vs theoretical concentration, LC-MS/MS, mean ± SD, n = 3; for −80 °C freeze–thaw 3 times: three freeze–thaw cycles −80 °C to room temperature. The procedure:
The calibration standard samples and QC samples were both obtained by diluting the corresponding working solution with blank plasma at a ratio of 1:19. The concentrations of the calibration standard samples were 0.10, 0.25, 0.50, 1.0, 2.5, 5.0, 8.0 and 10 μg/mL while the concentrations of the QC samples were 0.10 (LLOQ), 0.30 (LQC), 2.0 (MQC), 7.5 (HQC), and 30 (DQC) μg/mL.
as §1, §2

The conditions of series [3]: cited from earlier work. The method, then:
The concentration–time curves and PK parameters of colistin and CMS are shown in Fig. 6 and Table 5, respectively. A total of three patients treated with CMS for carbapenem-resistant Gram-negative bacterial infections were included in this study (Ethical approval number: TJ-IRB20220737). The measured trough concentrations of colistin (Cmin) ranged from 0.97 μg/mL to 2.84 μ g/mL, and the average Cmin was 1.61 ± 1.06 μ g/mL.

Series [4] is described as follows: Pharmacokinetics / TDM of CMS and colistin in patient plasma. Format: in vivo, human. The settings on record: for AUC(0-t): 150 mg CBA. The procedure: as §1
The concentration of CMS was determined by calculating the difference between the concentration of total colistin after complete in vitro conversion and the concentration of free colistin in vivo. In vitro conversion of CMS was performed by sulfuric acid hydrolysis. Samples were processed as follows: 25 μL of 1 mol/L H2SO4 was added to a tube containing 200 μL of patient plasma sample and 100 μL of IS working solution, acidified at room temperature on a shaker for 1 h, and then 50 μL of 1 mol/L NaOH was added to neutralize the acid hydrolysis to maintain the pH of the final solution in the range of 7.0–7.5. After vortex mixing, 625 μL of 1.43 % ammonia solution was added and mixed thoroughly. After this conversion process, the concentration of total colistin was determined as free colistin described above.
The study included three patients infected with carbapenem-resistant Gram-negative bacteria. The patients provided informed consent, and the research project was carried out following the regulations of the Ethics Committee (Ethical approval number: TJ-IRB20220737) of Tongji Medical College, Huazhong University of Science and Technology. The physician prescribed a weight-based dosing regimen with a 300 mg loading dose of colistin base activity (CBA) and a maintenance dose of 150 mg CBA. The sample collection for this session took place during the administration of the fourth dose. […] Blood samples were collected by EDTA tubes and placed on ice and transported to the lab within 2 h. The samples were centrifuged at a speed of 1000 g for 10 min at 4°C and the supernatant was stored at −20 °C for subsequent sample preparation.
Pharmacokinetic parameters, including area under the concentration–time curve from 0 to the last measurable time point (AUC0-t) and from 0 to infinity (AUC0-∞), peak concentration (Cmax), time to reach peak concentration (Tmax), elimination half-life (t1/2), apparent volume of distribution (V), apparent total clearance (CL), and mean residence time (MRT0-∞) were calculated using DAS 2.0 (Shanghai University of TCM, China).

Setting [5] is: CMS infusion, 150 mg CBA maintenance, fourth dose, plasma, LC-MS/MS, patient 1.
Setting [6] is: CMS infusion, 150 mg CBA maintenance, fourth dose, plasma, LC-MS/MS, patient 2.
Setting [7] is: CMS infusion, 150 mg CBA maintenance, fourth dose, plasma, LC-MS/MS, patient 3.

Read-outs that look alike come from different tables or passages of the source. Where a SMILES comes first, the peptide text is derived from it. Bridges are numbered along the chain shown (N, C = ends). [ ]: non-standard residue; d: D form. The star is where a group is joined. X1 = CC[C@H](C)CCCCC(=O)*; Dab = NCC[C@H](N)C(=O)O

`CC[C@H](C)CCCCC(=O)N[C@@H](CCN)C(=O)N[C@H](C(=O)N[C@@H](CCN)C(=O)N[C@H]1CCNC(=O)[C@H]([C@@H](C)O)NC(=O)[C@H](CCN)NC(=O)[C@H](CCN)NC(=O)[C@H](CC(C)C)NC(=O)[C@@H](CC(C)C)NC(=O)[C@H](CCN)NC1=O)[C@@H](C)O` [Colistin A, colistin A] (X1-[Dab]T[Dab][Dab][Dab][dL]L[Dab][Dab]T; lactam 4-C): the entries for the “Processed sample In the sampler at 4 °C for 24 h” value in series [1] (SPE eluate (acetonitrile 30:70 with 4 % formic acid) of HQC 7.5 μg/mL plasma) and in series [1] (SPE eluate (acetonitrile 30:70 with 4 % formic acid) of LQC 0.30 μg/mL plasma) were 100.74 ± 4.06% and 102.44 ± 1.43%, respectively. The “Frozen at −80 °C for 3 months” value amounted to 101.24 ± 1.46% in series [2] (HQC 7.5 μg/mL) and 98.31 ± 5.04% in series [2] (LQC 0.30 μg/mL). For the same compound, the figures for the “Room temperature 24 h” value in series [2] (HQC 7.5 μg/mL) and in series [2] (LQC 0.30 μg/mL) were 91.48 ± 3.06% and 104.77 ± 4.59%, respectively. Besides, the “−80 °C freeze–thaw 3 times” value was determined as 93.04 ± 1.97% in series [2] (HQC 7.5 μg/mL) and 106.19 ± 2.48% in series [2] (LQC 0.30 μg/mL).

A word on the Tmax: it is the time from dosing to the highest level. As a reminder, the Cmax is the maximum level reached in the sampled fluid or tissue. Broadly, the AUC(0-inf) is the area under the concentration-time curve extrapolated to infinity. Read a low AUC(0-inf) as less exposure. In the case of `CC[C@H](C)CCCCC(=O)N[C@@H](CCN)C(=O)N[C@H](C(=O)N[C@@H](CCN)C(=O)N[C@H]1CCNC(=O)[C@H]([C@@H](C)O)NC(=O)[C@H](CCN)NC(=O)[C@H](CCN)NC(=O)[C@H](CC(C)C)NC(=O)[C@@H](CC(C)C)NC(=O)[C@H](CCN)NC1=O)[C@@H](C)O` [Colistin, colistin] (X1-[Dab]T[Dab][Dab][Dab][dL]L[Dab][Dab]T; lactam 4-C), the time to peak (Tmax) in series [3] (healthy subjects) is 2 h; in series [4] (setting [5]), 2.00 h; in series [4] (setting [6]) it was 2.00 h; in series [4] (setting [7]), 3.00 h; in series [4] (human, in vivo, iv, patients on CMS infusion (300 mg CBA loading, 150 mg CBA maintenance), fourth dose, plasma, SPE LC-MS/MS, mean ± SD of 3 patients, SD, read-out: Tmax) it was 2.33 ± 0.58 h. Further, the half-life in series [3] (healthy volunteers, ref Couet W et al., 31) is 3.0 ± 0.6 h; in series [4] (human, in vivo, iv, patients on CMS infusion (300 mg CBA loading, 150 mg CBA maintenance), fourth dose, plasma, SPE LC-MS/MS, DAS 2.0, mean ± SD of 3 patients, SD, read-out: t1/2 (elimination half-life) (converted)), 9.94 ± 4.72 h. Moreover, the AUC0-12h in series [4] (setting [5]) was 18730 ng·h/mL; in series [4] (setting [6]) it was 43030 ng·h/mL; in series [4] (setting [7]) it was 18490 ng·h/mL. Further, the AUC0-24h was 37480 ng·h/mL in series [4] (setting [5]); 85740 ng·h/mL in series [4] (setting [6]); 37080 ng·h/mL in series [4] (setting [7]); 37430 ng·h/mL in series [4] (first of the three patients); 86050 ng·h/mL in series [4] (second of the three patients); 36980 ng·h/mL in series [4] (third of the three patients). Moreover, the “AUC0-∞” value in series [4] (setting [5]) came to 31440 ng·h/mL; in series [4] (setting [6]) it was 105170 ng·h/mL; in series [4] (setting [7]), 25180 ng·h/mL. Moreover, the entries for the “CL (apparent total clearance)” value in series [4] (setting [5]), in series [4] (setting [6]) and in series [4] (setting [7]) were 4.77 L/h, 1.43 L/h and 5.96 L/h, respectively. In addition, the Cmax in series [4] (setting [5]) worked out at 2080 ng/mL; in series [4] (setting [6]) it was 4520 ng/mL; in series [4] (setting [7]), 2450 ng/mL; in series [4] (human, in vivo, iv, patients on CMS infusion (300 mg CBA loading, 150 mg CBA maintenance), fourth dose, plasma, SPE LC-MS/MS, mean ± SD of 3 patients, SD, read-out: Cmax), 3010 ± 1320 ng/mL. The Cmin stood at 970 ng/mL in series [4] (setting [5]); 2840 ng/mL in series [4] (setting [6]); 1040 ng/mL in series [4] (setting [7]); 1610 ± 1060 ng/mL in series [4] (patients on CMS infusion (300 mg CBA loading, 150 mg CBA maintenance), fourth dose, plasma, SPE LC-MS/MS, mean ± SD of 3 patients, SD). Moreover, the Css in series [4] (setting [5]) turned out to be 1560 ng/mL; in series [4] (setting [6]), 3570 ng/mL; in series [4] (setting [7]), 1550 ng/mL; in series [4] (patients on CMS infusion (300 mg CBA loading, 150 mg CBA maintenance), fourth dose, plasma, SPE LC-MS/MS, DAS 2.0, mean ± SD of 3 patients, SD), 2230 ± 1170 ng/mL. For the same compound, the “MRT0-∞ (mean residence time)” value in series [4] (setting [5]) turned out to be 13.34 h; in series [4] (setting [6]), 22.04 h; in series [4] (setting [7]), 10.86 h. The “Vz (apparent volume of distribution)” value stood at 62.61 L in series [4] (setting [5]), 30.93 L in series [4] (setting [6]) and 49.04 L in series [4] (setting [7]). Moreover, the “t1/2 (elimination half-life)” value in series [4] (setting [5]) was 9.09 h; in series [4] (setting [6]), 15.03 h; in series [4] (setting [7]), 5.71 h. The “Css,avg” value in series [4] (first of the three patients) is 1560 ng/mL. The AUC(0-t) in series [4] (human, in vivo, iv, patients on CMS infusion (300 mg CBA loading, 150 mg CBA maintenance), fourth dose, plasma, SPE LC-MS/MS, DAS 2.0, mean ± SD of 3 patients, SD, read-out: AUC0-12h) amounted to 26800 ± 14100 ng·h/mL; in series [4] (human, in vivo, iv, patients on CMS infusion (300 mg CBA loading, 150 mg CBA maintenance), fourth dose, plasma, SPE LC-MS/MS, DAS 2.0, mean ± SD of 3 patients, SD, read-out: AUC0-24h), 53400 ± 28000 ng·h/mL. For the same compound, in series [4] (human, in vivo, iv, patients on CMS infusion (300 mg CBA loading, 150 mg CBA maintenance), fourth dose, plasma, SPE LC-MS/MS, DAS 2.0, mean ± SD of 3 patients, SD), the AUC(0-inf) stood at 53900 ± 44500 ng·h/mL. Further, in series [4] (human, in vivo, iv, patients on CMS infusion (300 mg CBA loading, 150 mg CBA maintenance), fourth dose, plasma, SPE LC-MS/MS, DAS 2.0, mean ± SD of 3 patients, SD, read-out: CL (apparent total clearance) (converted)), the clearance is 67.5 mL/min. For the same compound, the MRT in series [4] (human, in vivo, iv, patients on CMS infusion (300 mg CBA loading, 150 mg CBA maintenance), fourth dose, plasma, SPE LC-MS/MS, DAS 2.0, mean ± SD of 3 patients, SD, read-out: MRT0-∞ (mean residence time)) is 15.4 ± 5.87 h. The Vd in series [4] (human, in vivo, iv, patients on CMS infusion (300 mg CBA loading, 150 mg CBA maintenance), fourth dose, plasma, SPE LC-MS/MS, DAS 2.0, mean ± SD of 3 patients, SD, read-out: Vz (apparent volume of distribution)) came to 47.5 ± 15.9 L. In addition, the “time at which peak concentration (Cmax) was reached” value in series [4] (in words, three patients, CMS infusion (1 h)) is “at 1-hour post-infusion”.

For colistin methanesulfonate [CMS], in series [3] (human, in vivo), the Tmax is 1 h and the half-life is on record as 2.0 ± 0.12 h. Also, in series [4] (human, in vivo, iv, SD), the “CL (apparent total clearance)” value amounted to 6.87 ± 1.38 L/h, the Tmax amounted to 1.33 ± 0.58 h, the “Vz (apparent volume of distribution)” value was 14.11 ± 2.39 L and the “t1/2 (elimination half-life)” value is 1.50 ± 0.57 h.
